For ten molecules, GI50 and TGI results are on record in PubChem BioAssay (NCI).

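A five-concentration, 48-hour dose response in 96-well plates underlies each endpoint, interpolated linearly between surrounding concentrations. GI50 = concentration required for 50% inhibition of growth. Definition used: TGI = concentration required for complete inhibition of growth.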

Among the test systems are HT29 colon; RPMI-8226 leukemia; HOP-62 NSCLC; TK-10 renal; SN12C renal; UACC-62 melanoma; KM12 colon; EKVX NSCLC; SK-OV-3 ovarian; K-562 leukemia.
Experiment in all cases: NCI anticancer screen, dose series, 48 h

On to `N#Cc1ccc(Oc2nccc(-c3c(-c4ccc(F)cc4)ncn3C3CCNCC3)n2)cc1`, for which the GI50 in the assay on HT29 colon was 3.76 µM; in the assay on RPMI-8226 leukemia, 12.1 µM; with HOP-62 NSCLC, more than 25 µM; with TK-10 renal it was more than 25 µM; in the assay with SN12C renal, more than 25 µM; with UACC-62 melanoma, more than 25 µM. For the same molecule, the GI50 with KM12 colon is 18.2 µM; in the assay with EKVX NSCLC it was more than 25 µM; in the assay on SK-OV-3 ovarian, more than 25 µM; in the assay on K-562 leukemia, 5.01 µM. In addition, the TGI in the assay on HT29 colon is 8.03 µM; in the assay with RPMI-8226 leukemia it was more than 25 µM; in the assay on HOP-62 NSCLC it was more than 25 µM; in the assay with TK-10 renal, more than 25 µM; with SN12C renal it was more than 25 µM; in the assay on UACC-62 melanoma it was more than 25 µM. The TGI is more than 25 µM with KM12 colon, more than 25 µM in the assay on EKVX NSCLC, more than 25 µM with SK-OV-3 ovarian and 12.4 µM in the assay on K-562 leukemia.

As to `Nc1nnc2nc(CC(=O)/C=C/c3ccccc3)c(=O)[nH]n12`, the TGI in the assay on HT29 colon, in the assay on RPMI-8226 leukemia, in the assay on HOP-62 NSCLC, in the assay with TK-10 renal, with SN12C renal and with UACC-62 melanoma was more than 100 µM each time. Besides, the TGI with KM12 colon, with EKVX NSCLC, in the assay with SK-OV-3 ovarian and with K-562 leukemia was more than 100 µM throughout.

Regarding `C[N+](C)(C)CCOP(=O)(O)OP(=O)([O-])OCC1CCC(n2ccc(N)nc2=O)O1` (centres undefined), the TGI in the assay on HT29 colon, in the assay on RPMI-8226 leukemia, with HOP-62 NSCLC, in the assay on TK-10 renal, in the assay on SN12C renal and in the assay on UACC-62 melanoma was more than 100 µM in each case. The TGI in the assay with KM12 colon, in the assay with EKVX NSCLC, in the assay on SK-OV-3 ovarian and with K-562 leukemia was more than 100 µM each time.

With `O=C(CCCn1c2c(sc3ncccc32)c(=O)n2nnc(-c3ccccc3)c12)NCCc1cnc[nH]1`, the GI50 is 3.89 µM with HT29 colon; 5.15 µM in the assay on RPMI-8226 leukemia; 16.5 µM in the assay on HOP-62 NSCLC; 13.6 µM with TK-10 renal; 0.331 µM with SN12C renal; 16 µM in the assay on UACC-62 melanoma. Further, the GI50 with KM12 colon was 1.89 µM; in the assay on EKVX NSCLC, 15.2 µM; in the assay with SK-OV-3 ovarian it was 14.3 µM; with K-562 leukemia, 0.31 µM. The TGI in the assay with HT29 colon was found to be 54.9 µM; with RPMI-8226 leukemia, 35.7 µM; in the assay on HOP-62 NSCLC, 32 µM; in the assay with TK-10 renal, 27.9 µM; in the assay with SN12C renal, 13.4 µM; with UACC-62 melanoma, 30.5 µM. Moreover, the TGI with KM12 colon was determined as 24 µM; in the assay with EKVX NSCLC, 44.5 µM; in the assay with SK-OV-3 ovarian, 27.7 µM; in the assay with K-562 leukemia it was 15.6 µM.

For `O=C(Oc1cccnc1)c1ccccc1Nc1ccnc(C(F)(F)F)c1`, the GI50 is 0.0487 µM with HT29 colon; 0.0563 µM in the assay on RPMI-8226 leukemia; 0.0473 µM with HOP-62 NSCLC; 0.369 µM in the assay with TK-10 renal; 0.17 µM in the assay with SN12C renal; 0.313 µM with UACC-62 melanoma. The GI50 in the assay on KM12 colon is 0.169 µM; in the assay on EKVX NSCLC it was 6.15 µM; in the assay with SK-OV-3 ovarian, 0.25 µM; with K-562 leukemia, 0.0426 µM. Also, the TGI in the assay with RPMI-8226 leukemia is 7.22 µM; in the assay with HOP-62 NSCLC, 0.214 µM; in the assay with TK-10 renal it was 31.8 µM; in the assay with SN12C renal, more than 94.8 µM; with UACC-62 melanoma, more than 64.6 µM; in the assay on KM12 colon it was 2.72 µM. In addition, the TGI is 46.4 µM in the assay with EKVX NSCLC, more than 100 µM in the assay with SK-OV-3 ovarian and more than 100 µM in the assay with K-562 leukemia.

As to `OC(c1ccccc1)(c1ccccc1)c1ccccn1`, the TGI with HT29 colon, with RPMI-8226 leukemia, in the assay with HOP-62 NSCLC, with TK-10 renal, with SN12C renal and with UACC-62 melanoma was more than 100 µM in each case. The TGI in the assay on KM12 colon, in the assay on EKVX NSCLC, in the assay with SK-OV-3 ovarian and in the assay with K-562 leukemia was more than 100 µM throughout.

For the molecule `O=C(CC(=O)N1N=C(n2ccc3ccccc32)CC1c1ccccc1)Nc1cccc(Cl)c1` (centres undefined), the TGI in the assay with HT29 colon, with RPMI-8226 leukemia, in the assay with HOP-62 NSCLC, with TK-10 renal, with SN12C renal and in the assay on UACC-62 melanoma was more than 100 µM throughout. Also, the TGI in the assay with KM12 colon, in the assay with EKVX NSCLC, in the assay with SK-OV-3 ovarian and in the assay with K-562 leukemia was more than 100 µM in each case.

With `COc1cc(/C=C/C(=O)C(=Cc2ccc(F)c(F)c2)C(=O)/C=C/c2ccc(O)c(OC)c2)ccc1O`, the GI50 was 1.72 µM with HT29 colon; 2.44 µM in the assay on RPMI-8226 leukemia; 2.87 µM in the assay on HOP-62 NSCLC; 2.67 µM with TK-10 renal; 2.65 µM with SN12C renal; 1.93 µM in the assay on UACC-62 melanoma. In addition, the GI50 in the assay with KM12 colon was 1.64 µM; in the assay on EKVX NSCLC, 4.61 µM; in the assay with SK-OV-3 ovarian it was 3.45 µM; in the assay on K-562 leukemia, 3.16 µM. Moreover, the TGI is 3.63 µM in the assay on HT29 colon; 8.29 µM with RPMI-8226 leukemia; 9.38 µM in the assay on HOP-62 NSCLC; 8.37 µM in the assay on TK-10 renal; 7.86 µM in the assay with SN12C renal; 5.14 µM with UACC-62 melanoma. Further, the TGI with KM12 colon came out at 3.19 µM; in the assay with EKVX NSCLC, 18.3 µM; in the assay on SK-OV-3 ovarian, 12.5 µM; with K-562 leukemia, 32.8 µM.

In the case of `CCc1cccc(C(C)CC)c1N=C(NC(=O)c1ccccc1C(=O)NC(=Nc1c(CC)cccc1C(C)CC)SC)SC` (centres undefined), the TGI is more than 100 µM with HT29 colon; 89.8 µM in the assay with RPMI-8226 leukemia; more than 100 µM in the assay with HOP-62 NSCLC; 79 µM in the assay with TK-10 renal; more than 100 µM with SN12C renal; 53.5 µM with UACC-62 melanoma. Also, the TGI in the assay with KM12 colon, in the assay with EKVX NSCLC, in the assay with SK-OV-3 ovarian and with K-562 leukemia was more than 100 µM throughout.

Consider `C/C(CN1C(=O)c2ccccc2C1=O)=N\NS(=O)(=O)c1ccccc1`, for which the TGI in the assay with HT29 colon, with RPMI-8226 leukemia, in the assay with HOP-62 NSCLC, with TK-10 renal, in the assay on SN12C renal and with UACC-62 melanoma was more than 100 µM each time. Further, the TGI in the assay on KM12 colon, with EKVX NSCLC, in the assay with SK-OV-3 ovarian and in the assay on K-562 leukemia was more than 100 µM in each case.
